Data on six molecules can be found in US10858626B2, “Adoptive immunotherapy for treating cancer” (UNIVERSITÉ DE LAUSANNE, priority 2014, dated 2020).

The target in one assay is TIE-2 (Homo sapiens, UniProt Q02763). As to conditions: read-out: IC 50 TIE-2; cited from earlier work.
The test system of the next assay is kinases. As to conditions: other kinases inhibited; cited from earlier work.
The next assay concerns the target VEGFR-1 (Homo sapiens, UniProt P17948). To be noted: cited from earlier work.
The test system of the next assay is breast tumor fragments. Put plainly: Expansion of T cells in vitro from breast tumor fragments treated with kinase inhibitors (Example 2). It is filed as cell-based, human. As to conditions: first 20 days of culture, high doses IL-2, 12 h inhibitor treatment. The text has this:
The fragments were washed, placed in culture as previously described and 20 days later the number of T cells obtained were counted. Antibodies and multimers of MHC class I: antibodies specific for CD4, CD8, CD3 and CD28 were from Beckton Dikinson. Antibodies specific for PD-1 were from Affimetrix eBioscience (clone J105, PD-1 PerCP-eF710), anti-LAG-3 antibodies were from Enzo Life Science (clone 17B4, LAG-3-FITC), anti-CD137 antibodies were from Biolegend (clone 4B4-1, CD137-BV605). Fluorescently labelled Her2/neu MHC-classI multimers were from TCMetrix (Epalinges, Swizerland).

pIC50: −log10 of the molar value.

TIE-2, sequence (Q02763 23-1124, species assumed): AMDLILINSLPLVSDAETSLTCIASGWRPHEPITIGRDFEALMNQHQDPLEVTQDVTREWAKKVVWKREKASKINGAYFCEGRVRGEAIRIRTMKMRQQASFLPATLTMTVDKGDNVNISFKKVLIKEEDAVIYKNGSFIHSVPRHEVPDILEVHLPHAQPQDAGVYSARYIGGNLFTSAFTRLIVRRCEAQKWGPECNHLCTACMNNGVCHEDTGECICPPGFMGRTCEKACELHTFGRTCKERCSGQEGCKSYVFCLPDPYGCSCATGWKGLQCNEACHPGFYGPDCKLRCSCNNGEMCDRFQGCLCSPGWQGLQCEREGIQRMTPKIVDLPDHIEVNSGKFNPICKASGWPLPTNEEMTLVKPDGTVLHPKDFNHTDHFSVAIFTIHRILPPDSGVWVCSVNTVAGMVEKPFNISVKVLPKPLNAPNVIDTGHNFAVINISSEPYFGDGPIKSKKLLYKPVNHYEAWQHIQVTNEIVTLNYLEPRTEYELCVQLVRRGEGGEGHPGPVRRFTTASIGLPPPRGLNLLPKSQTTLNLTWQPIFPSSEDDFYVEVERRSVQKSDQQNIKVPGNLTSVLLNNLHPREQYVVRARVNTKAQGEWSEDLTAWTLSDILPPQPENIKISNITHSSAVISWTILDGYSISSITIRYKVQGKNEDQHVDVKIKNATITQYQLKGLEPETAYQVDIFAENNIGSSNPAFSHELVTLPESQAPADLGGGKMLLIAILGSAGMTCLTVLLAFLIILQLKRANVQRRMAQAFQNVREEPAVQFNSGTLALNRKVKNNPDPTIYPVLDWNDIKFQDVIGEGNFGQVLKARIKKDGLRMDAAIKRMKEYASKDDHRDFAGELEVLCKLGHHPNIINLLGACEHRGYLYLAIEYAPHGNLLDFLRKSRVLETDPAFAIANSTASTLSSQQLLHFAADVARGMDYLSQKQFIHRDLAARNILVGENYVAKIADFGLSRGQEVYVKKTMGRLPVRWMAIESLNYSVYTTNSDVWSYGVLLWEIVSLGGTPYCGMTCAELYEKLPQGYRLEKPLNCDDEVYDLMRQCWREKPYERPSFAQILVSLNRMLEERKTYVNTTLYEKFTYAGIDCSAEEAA
VEGFR-1, sequence (P17948 27-1338, species assumed): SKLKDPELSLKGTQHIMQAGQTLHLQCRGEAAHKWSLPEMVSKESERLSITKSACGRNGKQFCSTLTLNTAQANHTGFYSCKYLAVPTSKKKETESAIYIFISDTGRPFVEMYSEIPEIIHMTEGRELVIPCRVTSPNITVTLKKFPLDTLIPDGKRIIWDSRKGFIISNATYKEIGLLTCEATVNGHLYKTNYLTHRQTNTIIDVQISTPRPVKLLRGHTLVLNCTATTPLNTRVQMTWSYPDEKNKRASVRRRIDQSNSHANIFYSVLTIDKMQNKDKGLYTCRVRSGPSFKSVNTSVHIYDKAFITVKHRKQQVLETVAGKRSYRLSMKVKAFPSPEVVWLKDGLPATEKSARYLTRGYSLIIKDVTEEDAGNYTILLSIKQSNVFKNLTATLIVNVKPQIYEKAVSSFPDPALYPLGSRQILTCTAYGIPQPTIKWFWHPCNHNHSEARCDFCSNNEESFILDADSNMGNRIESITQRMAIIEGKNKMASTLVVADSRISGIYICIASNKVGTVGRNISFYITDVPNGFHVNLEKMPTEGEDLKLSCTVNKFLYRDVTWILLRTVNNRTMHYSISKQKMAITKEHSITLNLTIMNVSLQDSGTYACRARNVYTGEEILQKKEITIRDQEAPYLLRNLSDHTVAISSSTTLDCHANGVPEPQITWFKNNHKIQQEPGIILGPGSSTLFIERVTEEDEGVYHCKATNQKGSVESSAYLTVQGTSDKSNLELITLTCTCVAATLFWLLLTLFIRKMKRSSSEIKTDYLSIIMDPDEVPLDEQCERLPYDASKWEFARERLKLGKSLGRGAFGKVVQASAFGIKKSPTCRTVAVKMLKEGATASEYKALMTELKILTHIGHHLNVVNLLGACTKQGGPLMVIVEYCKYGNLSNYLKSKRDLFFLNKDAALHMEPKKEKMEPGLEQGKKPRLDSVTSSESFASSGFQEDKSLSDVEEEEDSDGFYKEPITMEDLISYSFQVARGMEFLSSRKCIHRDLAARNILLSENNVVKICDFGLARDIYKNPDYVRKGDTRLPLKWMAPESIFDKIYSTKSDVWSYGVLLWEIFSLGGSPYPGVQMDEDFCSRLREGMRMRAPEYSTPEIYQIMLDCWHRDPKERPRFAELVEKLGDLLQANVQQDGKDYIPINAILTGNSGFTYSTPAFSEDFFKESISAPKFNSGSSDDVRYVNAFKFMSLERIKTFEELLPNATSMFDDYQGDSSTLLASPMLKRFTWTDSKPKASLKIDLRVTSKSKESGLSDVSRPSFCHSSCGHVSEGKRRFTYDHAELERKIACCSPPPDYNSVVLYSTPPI

In the case of `O=C(Nc1cc(Oc2cc(F)c(NC(=O)C3(C(=O)Nc4ccc(F)cc4)CC3)cc2F)ccn1)C1CC1` [Altiratinib (DCC-2701), Altiratinib], the pIC50 on TIE-2 was 8.70. In addition, the Additional inhibition reported result in the assay on kinases is recorded as “Met”.

In the case of `Clc1ccc(Nc2nnc(Cc3ccncc3)c3ccccc23)cc1` [PTK787, Vatalanib], in the assay on kinases, the Additional inhibition reported result was “c-Kit, PDGFR”.

As to `CNC(=O)c1cc(Oc2ccc(NC(=O)Nc3cc(C(C)(C)C)nn3-c3ccc4ncccc4c3)c(F)c2)ccn1` [Rebastinib (DCC-2036), Rebastinib], the pIC50 at VEGFR-1 was 7.92.

On to `Cc1ccc(OC(=O)N(CC(=O)N[C@@H](C)C2CCCCC2)Cc2ccc(-c3cncc(C(=O)O)c3)cc2)cc1` [Compound 7, 5-[4-[[[2-[[(1S)-1-Cyclohexylethyl]amino]-2-oxoethyl][(4methylphenoxy)carbonyl]amino]methyl]phenyl]-3-pyridinecarboxylic acid], for which the pIC50 at TIE-2 is 6.52.

For the molecule `COc1ccc2cc(-c3[nH]c(-c4ccc([S+](C)[O-])cc4)nc3-c3ccncc3)ccc2c1` (centres unmarked) [SB633825, 4-(5-(6-methoxynaphthalen-2-yl)-2-(4-(methylsulfinyl)phenyl)-1H-imidazol-4-yl)pyridine], the “Number of T cells expanded per 1 mm3 of breast tumor tissue” value in the assay on breast tumor fragments is recorded as “more than one million”. Moreover, the Additional inhibition reported result in the assay with kinases is listed as “p38, PDGFR1”.

Consider `COc1cc2nccc(Oc3ccc(NC(=O)Nc4cc(C)on4)c(Cl)c3)c2cc1OC` [Tivozanib], for which, in the assay with kinases, the Additional inhibition reported result is given as “PDGFR, c-Kit”.
